Results on three molecules are retold here after US10920230B2, “Methylotrophs for aquaculture and animal feed” (KnipBio, Inc., priority 2013, dated 2021).

One assay relates to PR/tetO promoter. Description: Fluorescence-based mCherry expression assay, pJP22T. The format is cell-based, M. extorquens. The source says: (§1) A desirable property for regulated expression systems is for levels of gene expression from the promoter to be proportional to the concentration of inducer. In order to explore the range of induction of PR/cmtO and PR/tetO, the promoters along with their respective regulatory proteins were introduced onto broad-host-range plasmids (IncP compatibility group) to create the expression vectors pLC290 and pLC291 (FIG. 8 in U.S. Ser. No. 61/863,701). […] We placed the red-fluorescent protein variant mCherry under the control of each promoter in pLC290 and pLC291 and introduced the resulting vectors (pJP18T and pJP22T) into M. extorquens. To induce expression from PR/cmtO and PR/tetO, we supplied varied concentrations of cumate (Q) and anhydrotetracycline (aTc), respectively, to M. extorquens cultures.
(§2) Assays to measure levels of mCherry protein expression were performed as follows. For dose-dependent response curves, M. extorquens strains harboring pJP18T or pJP22T were grown to saturation in 10 mL of Hypho-succinate medium. […] Cultures were allowed to continue growth for an additional 24 hours prior to fluorescence (excitation 587 nm/emission 610 nm) and optical density (600 nm) measurements made using a Tecan Safire2 plate reader. Relative fluorescence values reported are: Relative fluorescence (A.U.)=RFU/OD600*10^−3.

Assay [1] concerns cumate inducible PmxaF promoter. The experiment in a line: Fluorescence-based mCherry expression assay, pHC115m. Conditions: uninduced 15.6±1.5. The format is cell-based, M. extorquens. Here is the method: Assays to measure levels of mCherry protein expression were performed as follows. For dose-dependent response curves, M. extorquens strains harboring pJP18T or pJP22T were grown to saturation in 10 mL of Hypho-succinate medium. These cultures were then diluted 1:200 in fresh medium, followed by 630 μL aliquots being dispensed to clear, flat-bottom, 48-well microtiter plates (Costar). Cultures were grown for 4 hours on a plate shaking tower (Caliper) at 150 rpm in a 30° C. humidified room. After 4 hours of growth, 10 μl of fresh medium containing Q or aTc was added to supply Q and aTc at desired concentrations. Cultures were allowed to continue growth for an additional 24 hours prior to fluorescence (excitation 587 nm/emission 610 nm) and optical density (600 nm) measurements made using a Tecan Safire2 plate reader. Relative fluorescence values reported are: Relative fluorescence (A.U.)=RFU/OD600*10^−3.

For the next assay, the system named is PR/cmtO promoter. The experiment in a line: Fluorescence-based mCherry expression assay, pJP18T. The format is cell-based, M. extorquens.
Text: as §1, §2

The test system of assay [2] is wild-type B. fungorum LB400. Description: microbe, parasite or virus in culture. As to conditions: Paraburkholderia fungorum. How it is done: The minimal inhibitory concentration (MIC) of formaldehyde was determined by comparing the rate and extent of colony formation of wild-type B. fungorum LB400 to that of the flhA mutants CM363K.1 and CM363.1 on solid medium containing succinate as a growth substrate with various concentrations of formaldehyde. Formaldehyde was added to the plates immediately prior to the addition of the molten agar.

The structures appear in SMILES notation. Values after ≈ are worked out from the molar mass of the structure shown.

For `CC(C)c1ccc(C(=O)O)cc1` [Q, p-isopropyl benzoate], the “relative fluorescence (crosstalk)” value in the assay with PR/tetO promoter (pJP22T with the non-cognate inducer, grown in succinate, uninduced 1.0) was 1.1 A.U. Besides, the “relative fluorescence, induced” value in assay [1] turned out to be 157.1±3.7 A.U. Besides, the “induction (regulatory range)” value in the assay on PR/cmtO promoter (induced versus uninduced) is recorded as 10 fold.

Turning to `Cc1c2c(c(O)c3c(O)cccc13)C(=O)[C@]1(O)C(=O)C(C(N)=O)=C(O)[C@@H](N(C)C)[C@@H]1C2` [aTc, anhydrotetracycline], the “induction (regulatory range)” value in the assay on PR/tetO promoter (induced versus uninduced) is recorded as 30 fold. Besides, the “relative fluorescence (crosstalk)” value in the assay with PR/cmtO promoter (pJP18T with the non-cognate inducer, grown in succinate, uninduced 4.6) is given as 4.2 A.U.

Turning to `C=O` [formaldehyde], the MIC in assay [2] came out at 200 µM (≈ 6.01 µg/mL).
